# Counter-ions that a name gives are not always drawn.
# Assays:
# [1] = system: SKOV-3x-FF-luci human ovarian cancer xenograft; experiment: Antitumor effect in SKOV-3x-FF-luci xenograft with vincristine (VCR); format: in vivo, Balb/c nu/nu mice
# Procedure: In order to expand the anti-tumor spectrum, more combination testing is explored. Based on in vitro synergistic effect of Example 1 and VCR, the compound is tested for its anti-tumor effects in SKOV-3x-FF-luci xenograft in the presence/absence of VCR. The SKOV-3x-FF-luci human ovarian cancer line (ATCC) is cultured in McCoy's 5a medium containing 10% FCS. Female Balb/c nu/nu mice (6-7 weeks old) are peritoneally injected with 0.2 mL of cell suspension containing 2×10^6 cells. Mice are divided into nine groups six days after cell implantation. The test compound is orally administered twice a day at 60 mg/kg for 20 consecutive days or at 90 mg/kg with a 2 days on and 5 days off dosing schedule. VCR at 1 or 0.3 mg/kg is administered via tail vein injection, once a week. In the combination group, VCR is given 1 h after the administration of the test compound. Mice from the control group are administered with the oral vehicle (10% Acacia at pH2.1) and intraperitoneally injected with saline. At the end of the treatment, all mice are euthanized with CO2 and tumors in the peritoneal cavity, diaphragmatic muscle, mesenterium, liver, spleen, and ovaries are harvested with surgery scissors and weighted. […] In the combination group, tumor growth is inhibited by 76% and 74%. Compared with monotherapy, statistical significance is found between combination and monotherapy.
# [2] = system: SKOV-3x-FF-luci human ovarian cancer xenograft; experiment: Anti-tumor effects in SKOV-3x-FF-luci xenograft (21 days); format: in vivo, Balb/c nu/nu mice; conditions: 60 mg/kg, tid, q6 h, oral
# Procedure: Anti-tumor Effects in Human Ovarian Cancer SKOV-3x-FF-luci Xenograft SKOV-3x-FF-luci human ovarian cancer line cell line (ATCC) is cultured in McCoy's 5a medium containing 10% fetal calf serum (FCS). Female Balb/c nu/nu mice (6-8 weeks old) are peritoneally injected with 0.2 mL of cell suspension containing 2×10^6 cells. Mice are divided into five groups six days after cell implantation. The test compound at doses of 60, 90 and 150 mg/kg is orally administered to animals for a consecutive 21 days with a twice a day (bid) or three times a day (tid) regimen. Mice in control groups are administered the vehicle (10% Acacia at pH 2.1, bid). At the end of the treatment, all mice are euthanized with CO2 and tumors in the peritoneal cavity, diaphragmatic muscle, mesenterium, liver, spleen, and ovaries are dissected and harvested, and put together for the measurement of their combined weight. Results of tumor weight and inhibition rate (IR) are evaluated. The inhibition rate is calculated with the formula: IR %=(tumor weight in control−tumor weight in drug treated)/tumor weight in control×100%.
# [3] = system: collagen induced arthritis; experiment: Rat collagen II induced arthritis (CIA) model; format: in vivo, Wistar Rats; conditions: 30 mg/kg oral bid, day 1 to day 21
# Procedure: To confirm the results obtained in mouse CIA model, the compound is also tested in a CIA model in rat essentially as described in a method reported in the literature (Rosloniec E F, Cremer M, Kang A, Myers L K. Current Protocols in Immunology. 1996, 15.5.1-15.5.24). Briefly, Wistar Rats are immunized intradermally with 200 μg bovine collagen II emulsified in Freund's […] on day 0 and with 100 μg collagen II emulsified in IFA (incomplete Freund's adjuvant) on day 7. The hind paw volume is measured before and after the immunization. The disease development of four paws is quantified with arthritis scores. Rats in normal and model groups are treated with vehicle or drug (treated group). Rats in treated group are orally administered with the testing compound at doses of 3, 10, 30 mg/kg (bid), from day 1 to day 21 after the first immunization. In the LEF group, as a positive control, rats are orally administered with LEF at a dose of 10 mg/kg, q.d.
# [4] = system: collagen induced arthritis; experiment: Collagen induced arthritis (CIA) model in mice; format: in vivo, DBA/1 mice
# Procedure: Previous studies have shown that small molecular inhibitors of IKKβ are efficacious in a mouse CIA model (Podolin, P L et al, J. Pharm. Exp. Ther., 2005, 312: 373-381). In addition, mice with T cells expressing a dominant—negative form of IkBa are protected from developing CIA (Seetharaman R. et al. J. Immunol. 1999: 163, 1577-1583). […] Therefore a compound of the present invention is tested in the collagen induced arthritis (CIA) model in mice essentially as described in a method reported in the literature (Rosloniec E F, Cremer M, Kang A, Myers L K. Current Protocols in Immunology. 1996, 15.5.1-15.5.24).
# Briefly, DBA/1 mice are immunized intradermally with chicken collagen II (200 μg/mouse) emulsified with Freund's complete adjuvant (CFA, Sigma, US) on day 0 and day 21 to elicit arthritis. The severity of arthritis is assessed using a visual scoring system, in which each paw is graded from 0 to 4 (0=normal, 4=severe swelling of the entire paw). The hind joint thicknesses are measured with a micrometer. The testing compound is orally administered for either prophylactic or therapeutic purposes. For the prophylactic study, the testing compound is orally administered twice daily from day 1 to day 42. For the therapeutic study, the drug treatment is started after the onset of arthritis, which usually occurs within one week of 2nd immunization. Mice are treated with the drug for 21 days. […]
# [5] = system: SKOV-3x-FF-luci human ovarian cancer xenograft; experiment: Anti-tumor effects in SKOV-3x-FF-luci xenograft (alternate protocol, 23 days); format: in vivo, Balb/c nu/nu mice
# Procedure: Alternately, the test compound is evaluated for its anti-tumor effects on tumor growth of human ovarian cancer SKOV-3x-FF-luci in nude mice. SKOV-3x-FF-luci cell line (ATCC) is cultured in McCoy's 5a medium containing 10% fetal calf serum. Female Balb/c nu/nu mice (6-7 weeks old) are injected peritoneally with 0.2 mL of cell suspension containing 2×10^6 cells. Mice are randomized and divided into four groups six days after cell implantation. The test compound at doses of 30 and 100 mg/kg is orally administered to animals twice a day for 23 consecutive days. Mice in the control group are administered the vehicle (10% Acacia), twice a day. Mice in the positive control group are injected with Cisplatin (4 mg/kg) via the tail vein once a week. At the end of the treatment, all mice are euthanized with CO2 and tumor nodules in the peritoneal cavity, diaphragmatic muscle, mesenterium, liver, spleen, and ovaries are dissected, harvested, and combined for the measurement of weight. Inhibition rate: IR %=(tumor weight in control−tumor weight in drug treated)/tumor weight in control×100%).
SMILES,"tumor growth inhibition ([1]; Example 1 alone 60 mg/kg oral twice a day, 20 days)","tumor growth inhibition ([1]; Example 1 alone 90 mg/kg, 2 days on and 5 days off)",tumor growth inhibition ([1]; combination group: Example 1 60 mg/kg + VCR),tumor growth inhibition ([1]; combination group: Example 1 90 mg/kg + VCR),Tumor Weight (g) (Mean ± S.D.) [2],IR (tumor inhibition rate) ([2]; hydrochloride),arthritis scores and hind paws volume [3],joint swelling and arthritis scores ([4]; 10 and 30 mg/kg bid (20 and 60 mg/kg/day)),"ED50 ([4]; 1008 h, mouse CIA, oral bid for 42 days, read-out: ED50, joint swelling and arthritis scores)",tumor inhibition rate (IR) ([5]; 30 mg/kg oral twice a day),tumor inhibition rate (IR) ([5]; 100 mg/kg oral twice a day)
"O=C(NC1CC1)c1cccc2[nH]c(-c3nc(N[C@@H]4CCC[C@@H]4O)ncc3Cl)cc12 [Example 1, 2-{5-Chloro-2-[(1R,2S)-2-hydroxycyclopentylamino]pyrimidin-4-yl}-N-cyclopropyl-1H-indole-4-carboxamide hydrochloride]",42%,36%,76%,74%,0.509 ± 0.193 g,76.31%,–,–,–,–,–
"Cl.O=C(NC1CC1)c1cccc2[nH]c(-c3nc(N[C@@H]4CCC[C@H]4O)ncc3Cl)cc12 [Example 2, 2-{5-Chloro-2-[(1R,2R)-2-hydroxycyclopentylamino]pyrimidin-4-yl}-N-cyclopropyl-1H-indole-4-carboxamide hydrochloride]",–,–,–,–,–,–,significantly attenuates collagen induced arthritis,Statistically significant inhibition of joint swelling and reduction of arthritis scores,4.3 mg/kg,59.3%,93.9%

# From patent US8501166B2, “Pyrimidinyl indole compounds” (Hutchison Medipharma Limited, priority 2010, dated 2013)
